Where two headings read alike, the source gives them in different places.
Experiments:
[1] = Pharmacokinetics in rats; type: in vivo, Sprague-Dawley rats; details: rat
Experimental: The pharmacokinetic profile of 4AZA2891 was investigated in male Sprague-Dawley rats after intravenous and oral administration of a dose of 2 mg/kg and 20 mg/kg, respectively. The rats were purchased from Charles River Laboratories (Belgium) and 3 rats were included in each dosing route. 4AZA2891 was formulated either as a solution at 1 mg/ml in glucose 5% with 2 equivalents of H3PO4 for the IV dosing or as a solution at 4 mg/ml in water with 2 equivalents of H3PO4 for the oral dosing. Both formulations were heated for 1 hour at 80°C in order to obtain a clear solution. Serial venous blood samples, taken by eye puncture under isoflurane inhalation anesthesia, were collected in heparinized tubes. The plasma fraction was immediately separated by centrifugation 2 min at 13,000 g and stored at -80°C until analysis. Plasma concentrations were measured using liquid chromatography/mass spectrometry/mass spectrometry (LC/MS/MS).
(§1) Every plasma and tissue sample was spiked with internal standard followed by the addition of 4 volumes of methanol. The samples were kept for 30 min on ice prior to centrifugation 10 min at 12,000 RPM in order to remove precipitated proteins. The supernatant was analyzed for the presence of 4AZA2891 using LC/MS/MS (Finnigan LCQ advantage Max (ion trap) mass spectrometer with Surveyor HPLC System (Thermo Finnigan)).
(§2) As standard for the bioanalysis, 4AZA2891 was diluted stepwise. Each dilution was added to blank control plasma or to blank control tissue homogenate additionally spiked with internal standard, giving rise to standard curves from 5 to 5,000 ng/ml. The lower limit of quantification was 5 to 10 ng/ml depending on the tissues.
(§3) Non-compartmental pharmacokinetic analysis was performed on the plasma concentration-time data. PK Solutions 2.0 software (Summit Research Services) was used to calculate the PK parameters.

[2] = test system: UACC-257; assay: NCI60 5-dose screen, UACC-257; type: cell-based; details: Homo sapiens, melanoma, Fig 1D, read-out: Log10 GI50 (UACC-257) (converted)
Experimental: (§4) The screening methodology used in the NCI60 Cell 5-Doses screen is described in detail at https://dtp.cancer.gov/discovery_development/nci-60/methodology.htm. Briefly, cells are seeded in 96 well plates at an appropriate density and incubated for 1 day. After 1 day, some of the plates are processed to determine a time zero density. To the remaining plates, compounds are added over a 5-log M concentration range (1 log dilutions from 10^-4M to 10^-8M). Plates are incubated for two additional days, then fixed and stained with sulforhodamine B. Growth inhibition is calculated relative to cells without drug treatment and the time zero control. The GI50 is the concentration of a compound that causes 50% growth inhibition, relative to the no drug control.

[3] = Myelotoxicity in mice; type: in vivo; details: Balb/c mice
Experimental: Female Balb/c mice from Janvier Labs, 8–10 weeks old, were injected IV daily for 6 days with 4AZA2891 at 15 mg/kg or with the vehicle (4 mice per treatment group). The compound was formulated at 0.75 mg/ml in glucose 5% with 2 equivalents H3PO4 as described above. Mice were daily weighted and assessed clinically. On day 7, mice were exsanguinated by retro-orbital bleeding under anesthesia with avertin (given intraperitoneally); blood was collected in EDTA tubes and was subjected to an automated blood count (Sysmex XE 2100 Hematology Analyser, Sysmex Europe GmbH). Femurs were fixed in formaldehyde, decalcified, and paraffin embedded. Sections (4.5 μm) were stained with hematoxylin/eosin (H&E) for histopathological analysis at Novaxia (France).

[4] = test system: HT-29 xenograft; assay: HT-29 xenograft tumor model; type: in vivo; details: for ratio of relative tumor volume of treated mice over control mice (T/C): end of the treatment period
Experimental: Seven-week-old NMRI nude male mice were obtained from Janvier Labs (France) and injected with 10^7 HT-29 cells intradermally on the flank. When tumors reached approximately 100 mm^3, mice were distributed into three groups of four to six mice to give the same average tumor size per group and randomly assigned a treatment condition. Mice were injected IV with 4AZA2891 at 15 mg/kg following a Q1D5x2W administration schedule or at 30 mg/kg following a Q2D3x2W administration schedule or with the vehicle (Q1D5x2W). 4AZA2891 was formulated before each injection at 3 mg/ml in 5% glucose with 2 equivalent H3PO4 and warmed at 80°C for 1 h to obtain a clear solution. Tumor volume was measured as (width^2 × length)/2 in mm^3 and weight gain/loss and survival were monitored. T/C ratio was calculated as the ratio of the relative tumor volume average. The health status and behaviour of the animals were assessed daily for well-being. At the end of the experiment (day 35 after treatment intiation)) or in the events of signs of distress, cachexia or excessive tumor growth, the mice were humanely sacrificed by CO2 inhalation followed by cervical dislocation.

[5] = test system: OVCAR-4; assay: NCI60 5-dose screen, OVCAR-4; type: cell-based; details: Homo sapiens, ovarian cancer, Fig 1D, read-out: Log10 GI50 (OVCAR-4) (converted)
Experimental: as §4

[6] = Pharmacokinetics and tissue distribution in mice; type: in vivo; details: CD1 mice, IV bolus 20 mg/kg
Experimental: Female CD1 mice were purchased from Harlan (Harlan Netherlands BV) and 7–8 weeks old mice were injected intravenously (IV) with 20 mg/kg 4AZA2891 formulated at 2 mg/ml as described above. […] The plasma, obtained after centrifugation of the heparinized blood for 2 min at 13,000 g, and the harvested tissues, after homogenization with Ultra-Turrax, were stored at-80°C until analysis by LC-MS/MS.
as §1, §2, §3

[7] = test system: NCI-H226; assay: NCI60 5-dose screen, NCI-H226; type: cell-based; details: Homo sapiens, non-small cell lung cancer, Fig 1D, read-out: Log10 GI50 (NCI-H226) (converted)
Experimental: as §4

[8] = test system: OVCAR-5; assay: NCI60 5-dose screen, OVCAR-5; type: cell-based; details: Homo sapiens, ovarian cancer, Fig 1D, read-out: Log10 GI50 (OVCAR-5) (converted)
Experimental: as §4

[9] = test system: EKVX; assay: NCI60 5-dose screen, EKVX; type: cell-based; details: Homo sapiens, non-small cell lung cancer, Fig 1D, read-out: Log10 GI50 (EKVX) (converted)
Experimental: as §4

[10] = 15 mg/kg IV once daily for 6 days, blood on day 7

**Q.** With `Cc1cc(C)cc(Nc2ccc([N+](=O)[O-])c(NCCN3CCOCC3)n2)c1` [Compound 4AZA2891, 6-(3,5-dimethylanilino)-2-(2-morpholinoethylamino)-3-nitropyridine] as the molecule, how does the AUC(0-t) ([1]; male, Sprague-Dawley, plasma, IV 2 mg/kg, read-out: AUClast in plasma) read?
**A.** The AUC(0-t) was 253 ng·h/mL.

**Q.** What about the half-life ([1]; male, Sprague-Dawley, plasma, IV 2 mg/kg, read-out: elimination half-life (converted)) of the same molecule?
**A.** Its half-life is 48 min.

**Q.** And the clearance ([1]; male, Sprague-Dawley, plasma, IV 2 mg/kg, read-out: systemic clearance (converted))?
**A.** Its clearance is 132 mL/min/kg.

**Q.** What about the Vd ([1]; male, Sprague-Dawley, plasma, IV 2 mg/kg, read-out: volume of distribution at steady state) of the same molecule?
**A.** Its Vd is 7.4 L/kg.

**Q.** What about the “time detected in the plasma” value ([1]; IV 2 mg/kg, lower limit of quantification 10 ng/ml) of the same molecule?
**A.** The value was “up to 3 hours”.

**Q.** What about the oral bioavailability ([1]; oral 20 mg/kg) of the same molecule?
**A.** Its oral bioavailability is “not orally bioavailable”.

**Q.** And the “plasma levels after oral dose” value ([1]; oral 20 mg/kg, all time points)?
**A.** The value was “below the limit of quantification”.

**Q.** What about the GI50 [2] of the same molecule?
**A.** Its GI50 is > 100000 nM.

**Q.** And the Hb [3, 10]?
**A.** Its Hb is 14.7 ± 2.2 g/dL.

**Q.** And the Platelets [3, 10]?
**A.** The Platelets was 234 ± 84 10^9/l.

**Q.** And the RBC [3, 10]?
**A.** The RBC was 9.4 ± 1.6 10^12/l.

**Q.** What about the WBC [3, 10] of the same molecule?
**A.** The WBC was 5.2 ± 2.6 10^9/l.

**Q.** What about the “histologic examination of the bone marrow” value ([3]; 15 mg/kg/d IV during 6 days) of the same molecule?
**A.** The value was “normal”.

**Q.** What about the “tolerability (body weight change, anemia, leukocytopenia, thrombocytopenia)” value ([3]; 15 mg/kg/d IV during 6 days) of the same molecule?
**A.** The value was “well tolerated”.

**Q.** What about the “ratio of relative tumor volume of treated mice over control mice (T/C)” value ([4]; 15 mg/kg IV Q1D5x2W) of the same molecule?
**A.** Its value is 42%.

**Q.** What about the “ratio of relative tumor volume of treated mice over control mice (T/C)” value ([4]; 30 mg/kg IV Q2D3x2W) of the same molecule?
**A.** The value was 34%.

**Q.** And the tumor growth inhibition ([4]; both dosing regimen (15 mg/kg Q1D5x2W, 30 mg/kg Q2D3x2W), IV)?
**A.** The tumor growth inhibition was “significant tumor growth inhibition”.

**Q.** And the “tolerability (body weight evolution)” value ([4]; both dosing regimens, IV, tumor bearing mice)?
**A.** Its value is “well tolerated”.

**Q.** What about the GI50 [5] of the same molecule?
**A.** The GI50 was < 10 nM.

**Q.** What about the tissue distribution [6] of the same molecule?
**A.** The tissue distribution was “distributes readily to all tissues analyzed including the brain”.

**Q.** What about the half-life ([6]; female, mouse, different tissues (homogenates), tissues, read-out: elimination half-lives in the different tissues) of the same molecule?
**A.** The half-life was 18 to 48 min.

**Q.** And the AUC(0-t) ([6]; female, mouse, plasma, read-out: AUClast in plasma)?
**A.** Its AUC(0-t) is 1290 ng·h/mL.

**Q.** And the Kp ([6]; female, mouse, brain, read-out: ratio of brain AUC over plasma AUC)?
**A.** The Kp was 2.7.

**Q.** And the Kp ([6]; female, mouse, kidney, read-out: ratio of kidney AUC over plasma AUC)?
**A.** Its Kp is 2.6.

**Q.** What about the half-life ([6]; female, mouse, plasma, read-out: elimination half-life (converted)) of the same molecule?
**A.** The half-life was 42 min.

**Q.** What about the clearance ([6]; female, mouse, plasma, read-out: systemic clearance (converted)) of the same molecule?
**A.** The clearance was 257 mL/min/kg.

**Q.** What about the Vd ([6]; female, mouse, plasma, read-out: volume of distribution at steady state) of the same molecule?
**A.** The Vd was 5.7 L/kg.

**Q.** And the GI50 [7]?
**A.** Its GI50 is 31.6 nM.

**Q.** And the GI50 [8]?
**A.** Its GI50 is 36.3 nM.

**Q.** What about the GI50 [9] of the same molecule?
**A.** Its GI50 is 44.7 nM.

From PMC11542830, “3-nitropyridine analogues as novel microtubule-targeting agents” (PLOS ONE, 2024)
